Laboratory results taken from BindingDB's records for doi:10.1021/jm00047a011 (Purdue University, 2021).
pIC50: −log10 of the molar value. Values belong to the compound of their own block, whether it stands above or below them.

Legend:
[1] = target: T1, Nicotinamide N-methyltransferase (Mus musculus, UniProt O55239); experiment: Inhibition of endogenous mouse NNMT overexpressed in murine 3T3-L1 cells assessed incubated for 24 hrs by LC-MS/MS analysis
T1 sequence (O55239 whole entry): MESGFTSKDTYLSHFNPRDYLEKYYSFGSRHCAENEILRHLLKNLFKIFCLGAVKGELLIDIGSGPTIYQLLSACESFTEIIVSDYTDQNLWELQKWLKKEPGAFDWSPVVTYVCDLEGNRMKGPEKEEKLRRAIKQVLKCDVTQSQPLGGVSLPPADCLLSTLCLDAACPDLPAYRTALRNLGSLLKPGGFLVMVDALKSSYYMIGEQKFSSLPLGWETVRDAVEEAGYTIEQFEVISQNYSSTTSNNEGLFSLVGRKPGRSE

[2] = target: T2, Nicotinamide N-methyltransferase (Homo sapiens, UniProt P40261); experiment: Inhibition of endogenous human NNMT overexpressed in human U2OS cells assessed incubated for 24 hrs by LC-MS/MS analysis
T2 sequence (P40261 whole entry): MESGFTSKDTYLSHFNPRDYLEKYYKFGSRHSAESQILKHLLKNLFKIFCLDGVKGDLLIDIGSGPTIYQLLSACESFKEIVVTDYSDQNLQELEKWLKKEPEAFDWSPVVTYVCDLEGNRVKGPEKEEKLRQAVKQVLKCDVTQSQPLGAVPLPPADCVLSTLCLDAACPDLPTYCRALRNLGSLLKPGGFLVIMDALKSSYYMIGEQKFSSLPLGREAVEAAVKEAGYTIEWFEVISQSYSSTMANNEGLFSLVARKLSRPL

[3] = target: T2, Nicotinamide N-methyltransferase; experiment: Binding affinity to recombinant human NNMT SAM binding site expressed in Escherichia coli BL21 (DE3) using nicotinamide as substrate and AdoMet as cofactor preincubated for 10 mins followed by substrate addition and measured after 10 mins by UHP-HILIC-MS analysis
[4] = target: T2, Nicotinamide N-methyltransferase; experiment: Inhibition of NNMT (unknown origin) assessed as formation of MNA using nicotinamide as substrate and SAM as cofactor by fluorescence based assay

- pIC50 [1]: 5.20
- pIC50 [2]: 5.80
Compound: COc1ccc(C(N)=O)cn1

- pIC50 [3]: 4.58
Compound: Nc1ncnc2c1ncn2[C@@H]1O[C@H](CSCC[C@H](N)C(=O)O)[C@@H](O)[C@H]1O [AdoHcy]

- pIC50 [3]: 5.41
Compound: Nc1ncnc2c1ncn2[C@@H]1O[C@H](C[C@@H](N)CC[C@H](N)C(=O)O)[C@@H](O)[C@H]1O [SINEFUNGIN]

Compound: C=C(C)[C@@]12O[C@@]3(/C=C/C=C/CCCCC)O[C@@H]1[C@@H]1[C@@H]4O[C@]4(CO)[C@@H](O)[C@]4(O)C(=O)C(C)=C[C@H]4[C@@]1(O3)[C@H](C)[C@H]2OC(C)=O [YUANHUADINE]
- pIC50 [4]: 5.40
